What was measured:
Assay type in all cases: cell-based
[1] = target: T1, IDO1 (Homo sapiens, UniProt P14902); experiment: IDO1 HEK293 cellular assay; details: HEK293 cells transfected with Flag-IDO1 vector, 20-24 hours, fluorescence readout
Experimental: IDO1 HEK293 Cellular Assay
Compounds to be tested were serially diluted in ten 3-fold steps in DMSO starting from 10 mM DMSO stocks. Compound dilutions or DMSO alone were then dispensed from the dilution plate into a Greiner black 384-well assay plate (catalog #781086) using an Echo 550 acoustic liquid handler (Labcyte).
HEK293 cell pellets were resuspended to 5×10^5 cells/mL in complete HEK293 culture media (89% DMEM, 10% FBS, 1% penicillin/streptomycin). Suspended cells (2 mL) were dispensed into each well of a 6-well Corning plate (Catalog # 3516). Cells were allowed to attach and were incubated for 20 hours at 37° C. in a 5% CO2 incubator. Flag-IDO1 vector (Genscript True ORF Gold, 2 ug) in 150 uL of Opti-MEM medium was added to each well of a Corning 24 well plate (Cat # 3527) and incubated for 5 minutes at room temperature. To each well of the 24-well plate was added […] Lipofectamine 2000 (Gibco) and the plate incubated at room temperature for 20-30 minutes. To each well of attached cells in the 6-well plate, […] of the transfection mix from the 24-well plate was gently added to each well and IDO1 protein was allowed to express for 24-30 hours at 37 degrees Celsius in a 5% CO2 incubator.
Media was removed from the cells which were then washed with 2 mL Dulbecco's phosphate-buffered saline (DPBS). After removal of DPBS, 0.5 mL of TrypLE (Gibco) was added and incubated at 5 minutes until cells lift from the surface of the wells. Complete HEK293 culture media (4 mL) was added to each well and cells were collected and pooled into a conical tube. Cells were pelleted at 200×g for 5 minutes and resuspended in an equal volume of complete DMEM medium. Cells were diluted to 4×10^5 cells per mL in complete HEK293 media. L-Tryptophan was added to added to give a final concentration of […]. The diluted transfected cells […] or nontransfected cells […] were dispensed into wells of Greiner black 384-well assay plates (catalog #781086) containing previously diluted compounds. The plate is briefly mixed and centrifuged at 200×g for 10 seconds to collect cells at the bottom of the plate. Plates were covered and incubated for 20-24 hours at 37 degrees C. in a 5% CO2 incubator. Afterwards […] of 0.5 M methyl isonipecotate in dimethyl sulfoxide was added to each well, mixed, sealed, and centrifuged at 500 rpm for 10 seconds. Plates were incubated at 37 degrees in a 5% CO2 incubator overnight to develop fluoresence. The plates are allowed to cool and then centrifuged for 1 minute at 1000×g. The resulting fluoresence was measured in an Envision plate reader (Perkin Elmer) with a 400/25 nm excitation filter and an 510/20 nm emission filter.
The fluoresence intensity of each well was corrected for the background observed in wells with untransfected cells and was expressed as a fraction of the intensity observed in wells of IDO1 transfected cells and DMSO only. Potencies were calculated by linear least squares fit to the four parameter logistic IC50 equation.

[2] = target: T2, TDO (Homo sapiens, UniProt P48775); experiment: TDO cellular assay in frozen SW48 cells; details: 300 uM L-tryptophan, about 48 hours, fluorescence readout
T2 construct: endogenous in cells; host or cells: SW48 cells (A2780 cells as low-TDO control)
T2 sequence (P48775 whole entry): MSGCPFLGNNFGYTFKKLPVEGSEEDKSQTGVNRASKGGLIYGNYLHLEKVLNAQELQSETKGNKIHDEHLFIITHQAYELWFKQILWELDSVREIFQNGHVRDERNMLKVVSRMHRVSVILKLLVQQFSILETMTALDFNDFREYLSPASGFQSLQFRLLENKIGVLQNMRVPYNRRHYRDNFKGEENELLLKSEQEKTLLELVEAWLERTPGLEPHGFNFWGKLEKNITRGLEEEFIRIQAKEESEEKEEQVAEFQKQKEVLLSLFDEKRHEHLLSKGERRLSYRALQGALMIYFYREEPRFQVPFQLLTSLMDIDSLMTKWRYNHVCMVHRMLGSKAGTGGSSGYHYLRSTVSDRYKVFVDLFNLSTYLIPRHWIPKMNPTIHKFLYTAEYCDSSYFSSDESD

[3] = target: T1, IDO1; experiment: IDO1 cellular assay in Hela cells stimulated with IFNγ; details: IFNγ 100 ng/mL, 300 uM L-tryptophan, about 48 hours, fluorescence readout

T1 sequence (P14902 whole entry): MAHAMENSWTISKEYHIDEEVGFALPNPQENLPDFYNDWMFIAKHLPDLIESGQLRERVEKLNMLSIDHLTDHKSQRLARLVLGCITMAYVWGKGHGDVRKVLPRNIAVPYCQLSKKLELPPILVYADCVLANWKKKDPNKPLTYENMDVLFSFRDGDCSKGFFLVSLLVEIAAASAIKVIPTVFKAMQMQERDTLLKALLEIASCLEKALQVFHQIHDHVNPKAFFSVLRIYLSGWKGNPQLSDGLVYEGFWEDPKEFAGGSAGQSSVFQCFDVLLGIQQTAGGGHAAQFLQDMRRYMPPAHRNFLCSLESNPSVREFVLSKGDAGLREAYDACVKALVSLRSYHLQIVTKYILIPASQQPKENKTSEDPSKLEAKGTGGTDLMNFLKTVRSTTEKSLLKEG

- IC50 [1]: 7 nM
- IC50 [2]: ≥ 10000 nM
- IC50 [3]: 10 nM
Structure (SMILES): O=C(Nc1ccc(C2(C(=O)Nc3ccc(F)cc3)CCC2)cn1)C1CCCCC1 [Example 15, N-(5-{1-[(4-fluorophenyl)carbamoyl]cyclobutyl}pyridin-2-yl) cyclohexanecarboxamide]

From patent publication US11111232B2, “Substituted cyclobutylpyridine and cyclobutylpyrimidine compounds as indoleamine 2,3-dioxygenase (IDO) inhibitors” (MERCK SHARP & DOHME CORP., priority 2017, dated 2021)
